Source: US20220296590A1, “STEREOISOMERS OF THE COMPOUND 3-(BENZO[D][1,3]DIOXOL-5-YL)-7-(1-HYDROXYPROPAN-2-YL)-1-(1H-INDOL-3-YL)-6,7-DIHYDRO-3H-OXAZOL[3,4-A]PYRAZINE-5,8-DIONE AND USE THEREOF AS AN ANTITUMOR AGENT AND PHOSPHODIESTERASE ENZYME INHIBITOR” (BIOLAB SANUS FARMACEUTICA LTDA, priority 2019, published 2022)

Key:
[1] = test system: DU145-human prostate cancer; assay: Antiproliferative effect in tumor cell culture (CYQuant intracellular DNA, 72 hours), DU145; assay type: cell-based; details: for % Cell Proliferation Inhibition (intracellular DNA) DU145 (average ± E.P.M.): 72 hours
Procedure: (§1) For the execution of the assay, the compounds are diluted in DMSO 100% (v/v) at a concentration of 1000 μM and subsequently diluted in a Sodium Chloride solution 0.9% to obtain the storage solutions of interest for use in the assays. The final concentration of interest will be directly diluted in the cell culture medium. For the assay there are used the following tumor cell lineages: PC3-human prostate cancer cells; LNCAP-human prostate cancer cells; DU145-human prostate cancer; MNK45-human gastric cancer and RT4-human bladder cancer cells. The tumor cell lineages are maintained in culture according to standard procedures established by the Cell Bank of Rio de Janeiro (lineage place of origin). For the assay, the tumor cells are seeded in the concentration of 10.000 cells per well (final volume of the reaction of […]), the plate is incubated for 8 hours, for the cells to adhere to the wall of the wells. After this period, the plate is divided in groups: • (a) test group: […] of the samples were added (test compound) in the concentrations of interest; • (b) positive control group: […] of culture medium were added (100% of cell proliferation); • (c) negative control group: 200 mL of culture medium and […] of the vehicle used were added to dilute the compounds (without cells—zero proliferation); • (d) control group: […] were added of the vehicle used to dilute the compounds. This group is important to evaluate whether the vehicle used interferes in the cell proliferation. OBSERVATION: the treatment with the concentrations of samples (test compounds) and of the controls are carried out in triplicate. Incubate the plate for 72 hours in a CO2 kiln at 37° C. After the incubation period, add […]/well of the solution with DNA marker from the CYQuant Kit and incubate the plate, for 60 minutes, in a CO2 incubator at 37° C. The fluorescence intensity is determined using a fluorescence microplate reader with 485 nm excitation and 530 nm emission detection. The results obtained were normalized relative to the positive control group (100% proliferation). For the compounds there are prepared the storage solutions in the concentrations of: 100 nM, 1 μM, 3 μM, 5 μM, 10 μM and 30 μM (DMSO 10% v/v). While the final concentrations in the test are of: 10 nM, 100 nM, 300 nM, 500 nM, 1000 nM and 3000 nM (in DMSO 1% v/v).

[2] = test system: MNK45-human gastric cancer; assay: Antiproliferative effect in tumor cell culture (CYQuant intracellular DNA, 72 hours), MNK45; assay type: cell-based
Procedure: as §1

[3] = test system: LNCAP-human prostate cancer cells; assay: Antiproliferative effect in tumor cell culture (CYQuant intracellular DNA, 72 hours), LNCAP; assay type: cell-based; details: for % Cell Proliferation Inhibition (intracellular DNA) LNCAP (average ± E.P.M.): 72 hours
Procedure: as §1

[4] = test system: PC3-human prostate cancer cells; assay: Antiproliferative effect in tumor cell culture (CYQuant intracellular DNA, 72 hours), PC3; assay type: cell-based; details: for % Cell Proliferation Inhibition (intracellular DNA) PC-3 (average ± E.P.M.): 72 hours
Procedure: as §1

[5] = test system: RT4-human bladder cancer cells; assay: Antiproliferative effect in tumor cell culture (CYQuant intracellular DNA, 72 hours), RT4; assay type: cell-based; details: for % Cell Proliferation Inhibition (intracellular DNA) RT4 (average ± E.P.M.): 72 hours
Procedure: as §1

[6] = target: T1, PDE5A1 enzyme (Homo sapiens, UniProt O76074); assay: In vitro inhibition of human phosphodiesterase enzyme 5 (BPS Bioscience PDE5A1 assay kit, fluorescence polarization); assay type: biochemical
T1 construct: purchased BPS Bioscience 60350
Procedure: The evaluation of the compound is studied using BPS Bioscience enzyme assay kit (catalogue 60350). The PDE5A1 Assay kit is designed for identification of PDE5A1 inhibitors using fluorescence polarization. The assay is based on the binding of a fluorescent nucleotide monophosphate generated by PDE5A1 enzyme to the binding agent.
In this methodology only two simple steps on a microtiter plate are required for PDE5A1 reactions. First, the fluorescently labeled cGMP is incubated with PDE5A1 for 1 hour. Second, the binding agent is added to the reaction mixture to produce a change in fluorescent polarization that can then be measured using a fluorescence reader equipped for the measurement of fluorescence polarization.
For the assay the storage reagent FAM-Cyclic-3′, 5′-GMP (20 μM) is diluted with PDE assay buffer to achieve the solution with a […] concentration; the PDE5A1 enzyme is thawed and diluted with the PDE buffer obtaining a PDE5A1 solution at 10 pg/mL.
The assay compounds are diluted with DMSO 100% (v/v) at a concentration of 1000 μM and subsequently diluted in a Sodium chloride 0.9% solution to obtain a curve of concentrations of interest for the assay. The compounds are diluted in concentrations of: 10 nM, 30 nM, 50 nM, 100 nM, 300 nM, 500 nM, 1 μM, 3 μM, 5 μM (DMSO 10% v/v).
The study is comprised of groups: (i) substrate control; (ii) positive control (KIT); (iii) samples in several concentrations; (iv) tadalafil (comparative control). Each parameter (group) is triple labeled.
For the 4 groups there is added, to each microplate well, […] of the FAM-Cyclic-3′ reagent, 5′-GMP (200 μM).
To the substrate control group there is added, to each well, […] of vehicle (DMSO 10% v/v) and […] PDE Buffer.
To the positive control group there is added, to each well, […] of vehicle (DMSO 10% v/v).
To the tadalafil group: there is added […] of the solution in the concentrations of interest.
To the test group there is added […] of the sample solution (test compound)
OBSERVATION: the parameters tested are in triplicate.
To begin the reaction, add […] of the PDE5A1 enzyme (diluted as described above) to the microplate wells designated as Positive Control and Samples (test and tadalafil), and incubate the microplate, for 1 hour, at a temperature of 25° C.
After the incubation period, the reaction is interrupted by the addition, in all the wells, of […] of the binding agent solution and the microplate is incubated for 30 minutes, under light stirring, at room temperature. The reading of the microplate is carried out in Polarized Fluorescence (475-495 nm—excitation and 518-538 nm—emission detection) 500 nanoseconds integration time.

CC(CO)N1CC(=O)N2C(=C(c3c[nH]c4ccccc34)OC2c2ccc3c(c2)OCO3)C1=O (mixture of isomers) [BL-241, (R)-3-(benzo[d][1,3]dioxol-5-yl)-7-((S)-1-hydroxypropan-2-yl)-1-(1H-indole-3-yl)-6,7-dihydro-3H-oxazole[3,4-a]pyrazine-5,8-dione with (S)-3-(benzo[d][1,3]dioxol-5-yl)-7-((S)-1-hydroxypropan-2-yl)-1-(1H-indole-3-yl)-6,7-dihydro-3H -oxazole[3,4-a]pyrazine-5,8-dione]
% Cell Proliferation Inhibition (intracellular DNA) DU145 (average ± E.P.M.) ([1]; 100 nM, 0.1 µM): 33 ± 8%
% Cell Proliferation Inhibition (intracellular DNA) DU145 (average ± E.P.M.) ([1]; 300 nM, 0.3 µM): 17 ± 3%
% Cell Proliferation Inhibition (intracellular DNA) DU145 (average ± E.P.M.) ([1]; 500 nM, 0.5 µM): 18 ± 2%
% Cell Proliferation Inhibition (intracellular DNA) DU145 (average ± E.P.M.) ([1]; 1000 nM, 1 µM): 22 ± 2%
% Cell Proliferation Inhibition (intracellular DNA) DU145 (average ± E.P.M.) ([1]; 3000 nM, 3 µM): 43 ± 5%
antiproliferative effect, result in words ([1]; DU145 prostate cancer tumor lineage): antiproliferative effect
% Cell Proliferation Inhibition (intracellular DNA) MNK45 (average ± E.P.M.) ([2]; 100 nM, 0.1 µM): 25 ± 1%
% Cell Proliferation Inhibition (intracellular DNA) MNK45 (average ± E.P.M.) ([2]; 300 nM, 0.3 µM): 10 ± 2%
% Cell Proliferation Inhibition (intracellular DNA) MNK45 (average ± E.P.M.) ([2]; 500 nM, 0.5 µM): 2 ± 1%
% Cell Proliferation Inhibition (intracellular DNA) MNK45 (average ± E.P.M.) ([2]; 1000 nM, 1 µM): 4 ± 1%
% Cell Proliferation Inhibition (intracellular DNA) MNK45 (average ± E.P.M.) ([2]; 3000 nM, 3 µM): 20 ± 3%
% Cell Proliferation Inhibition (intracellular DNA) LNCAP (average ± E.P.M.) ([3]; 10 nM, 0.01 µM): 25 ± 2%
% Cell Proliferation Inhibition (intracellular DNA) LNCAP (average ± E.P.M.) ([3]; 100 nM, 0.1 µM): 37 ± 3%
% Cell Proliferation Inhibition (intracellular DNA) LNCAP (average ± E.P.M.) ([3]; 300 nM, 0.3 µM): 38 ± 4%
% Cell Proliferation Inhibition (intracellular DNA) LNCAP (average ± E.P.M.) ([3]; 500 nM, 0.5 µM): 44 ± 2%
% Cell Proliferation Inhibition (intracellular DNA) LNCAP (average ± E.P.M.) ([3]; 1000 nM, 1 µM): 34 ± 6%
antiproliferative effect, result in words ([3]; LNCAP prostate cancer tumor lineage): antiproliferative effect
% Cell Proliferation Inhibition (intracellular DNA) PC-3 (average ± E.P.M.) ([4]; 10 nM, 0.01 µM): 27 ± 11%
% Cell Proliferation Inhibition (intracellular DNA) PC-3 (average ± E.P.M.) ([4]; 100 nM, 0.1 µM): 36 ± 7%
% Cell Proliferation Inhibition (intracellular DNA) PC-3 (average ± E.P.M.) ([4]; 300 nM, 0.3 µM): 42 ± 6%
% Cell Proliferation Inhibition (intracellular DNA) PC-3 (average ± E.P.M.) ([4]; 500 nM, 0.5 µM): 46 ± 1%
% Cell Proliferation Inhibition (intracellular DNA) PC-3 (average ± E.P.M.) ([4]; 1000 nM, 1 µM): 33 ± 3%
antiproliferative effect, result in words ([4]; PC3 prostate cancer tumor lineage): antiproliferative effect
% Cell Proliferation Inhibition (intracellular DNA) RT4 (average ± E.P.M.) ([5]; 100 nM, 0.1 µM): 28 ± 6%
% Cell Proliferation Inhibition (intracellular DNA) RT4 (average ± E.P.M.) ([5]; 300 nM, 0.3 µM): 5 ± 2%
% Cell Proliferation Inhibition (intracellular DNA) RT4 (average ± E.P.M.) ([5]; 500 nM, 0.5 µM): 4 ± 2%
% Cell Proliferation Inhibition (intracellular DNA) RT4 (average ± E.P.M.) ([5]; 1000 nM, 1 µM): 11 ± 8%
% Cell Proliferation Inhibition (intracellular DNA) RT4 (average ± E.P.M.) ([5]; 3000 nM, 3 µM): 57 ± 4%
antiproliferative effect, result in words ([5]; RT4 bladder cancer tumor lineage): antiproliferative effect
% of Inhibition (PDE5A1) ([6]; 500 nM, 0.5 µM): 57%
% of Inhibition (PDE5A1) ([6]; 1000 nM, 1 µM): 71%
% of Inhibition (PDE5A1) ([6]; 3000 nM, 3 µM): 88%
PDE5 inhibition, result in words ([6]; over the concentrations tested): capable of inhibiting the PDE5 in a dose-dependent manner
